According to article PMC11061835, “Elucidating the Mechanism of Metabolism of Cannabichromene by Human Cytochrome P450s” (Journal of Natural Products, 2024):
“And” between values parts separate entries of the source, which are not always exact repeats. Equal entries are not always repeated.

What was measured:
CYP2C9 with CPR = biological target: T1, CYP2C9 with CPR (Homo sapiens, UniProt P11712); test: NADPH activity assay, CYP2C9 with CPR; type: biochemical; details: CYP2C9, CBC 50 μM vs substrate-free
T1 construct: His-tag; made in house; host or cells: E. coli DH-5α with pTGro7 plasmid (CYP)
Description: (§1) CYP-mediated NADPH oxidation was measured using kinetics mode in a Cary 300 UV–vis spectrometer (Agilent Technologies). 0.2 μM (final concentration) of CYP was taken in 0.1 M potassium phosphate buffer (pH 7.4) and incubated with 0.6 μM (final concentration) of CPR for 5 min with a reaction volume of 400 μL. The reaction was initiated with 200 μM of NADPH, and the absorption change was monitored over 10 min at 340 nm. The rate of NADPH consumption (or NADPH to NADP^+ conversion) was calculated by taking the molar extinction coefficient as 6.22 mM^–1 cm^–1 at 340 nm. To estimate the change in NADPH oxidation in the presence of CBC, both CYP and CPR were further incubated using CBC (final concentration 50 μM) for 5 min followed by measuring the change in absorbance at 340 nm as discussed earlier.

[1] = biological target: T2, CYP3A4 in the presence of CPR (Homo sapiens, UniProt P08684); test: Spectroscopic titration, CYP3A4–CPR complex; type: binding
T2 construct: His-tag; made in house; host or cells: E. coli DH-5α with pTGro7 plasmid (CYP)
Description: For CBC titration to CYP–CPR complex, initially CYPs were dissolved in 400 μL of 0.1 M phosphate buffer (pH = 7.4) keeping the concentration between […]. Following this 50 μL of CPR (50 μM stock) was added to both cuvettes, and the final concentration of both of the proteins was 5–6 μM. Both proteins were initially mixed and incubated for 5 min followed by titration with CBC in the same process as mentioned above. The substrate-bound spectra were then subtracted from substrate-free spectra, and the extent of binding was analyzed using Origin Pro 2020.

CYP2J2 with CPR = biological target: T3, CYP2J2 with CPR (Homo sapiens, UniProt P51589); test: NADPH activity assay, CYP2J2 with CPR; type: biochemical
T3 construct: His-tag; made in house; host or cells: E. coli DH-5α with pTGro7 plasmid (CYP)
T3 sequence (P51589 1-502): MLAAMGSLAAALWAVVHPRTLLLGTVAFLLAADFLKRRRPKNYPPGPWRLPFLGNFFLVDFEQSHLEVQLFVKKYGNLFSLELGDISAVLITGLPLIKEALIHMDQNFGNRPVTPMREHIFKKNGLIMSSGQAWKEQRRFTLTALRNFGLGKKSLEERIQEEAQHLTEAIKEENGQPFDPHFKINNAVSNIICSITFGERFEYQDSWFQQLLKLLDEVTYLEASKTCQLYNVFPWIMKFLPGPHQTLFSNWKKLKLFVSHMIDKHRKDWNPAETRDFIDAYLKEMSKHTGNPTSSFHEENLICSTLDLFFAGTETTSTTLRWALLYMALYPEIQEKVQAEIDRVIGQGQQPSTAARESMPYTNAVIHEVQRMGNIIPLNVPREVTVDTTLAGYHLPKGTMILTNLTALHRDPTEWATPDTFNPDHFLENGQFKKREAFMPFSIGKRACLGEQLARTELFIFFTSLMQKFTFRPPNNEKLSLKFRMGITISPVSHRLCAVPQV
T3 sequence (P16435 1-677 partner): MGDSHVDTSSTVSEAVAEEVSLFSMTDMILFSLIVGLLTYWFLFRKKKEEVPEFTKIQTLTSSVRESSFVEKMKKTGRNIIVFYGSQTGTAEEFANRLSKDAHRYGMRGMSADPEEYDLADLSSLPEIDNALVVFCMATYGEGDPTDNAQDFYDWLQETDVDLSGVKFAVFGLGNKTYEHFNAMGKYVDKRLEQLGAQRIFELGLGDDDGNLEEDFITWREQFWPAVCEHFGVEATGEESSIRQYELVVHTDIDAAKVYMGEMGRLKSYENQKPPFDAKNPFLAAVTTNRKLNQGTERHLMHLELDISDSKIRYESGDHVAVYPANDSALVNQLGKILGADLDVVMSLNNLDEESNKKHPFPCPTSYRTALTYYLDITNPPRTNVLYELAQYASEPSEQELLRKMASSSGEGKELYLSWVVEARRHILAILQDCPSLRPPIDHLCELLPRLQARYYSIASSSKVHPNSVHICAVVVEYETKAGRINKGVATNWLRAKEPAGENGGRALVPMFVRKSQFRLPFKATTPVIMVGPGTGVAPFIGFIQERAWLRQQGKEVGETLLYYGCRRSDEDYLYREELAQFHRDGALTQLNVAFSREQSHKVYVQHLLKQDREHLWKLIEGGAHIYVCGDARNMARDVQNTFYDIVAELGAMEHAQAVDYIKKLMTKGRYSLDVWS
Description: as §1

TRPV2 = system: TRPV2; design: method as in PMID 30697147; details: read-out: agonism toward TRPV2; cited from earlier work
[2] = system: BV2 microglial cells, stimulated with lipopolysaccharide (LPS); test: Nitric oxide determination (Griess assay) in LPS-stimulated BV2 cells; type: cell-based, mouse; details: 0.1, 1.0, 2.5, 5.0 μM, vs cells treated with LPS only
Description: BV2 cells were a gift from Dr. Bob McCusker, University of Illinois. They were cultured and maintained at 37 °C in a humidified atmosphere of 95% air and 5% CO2 in high-glucose Dulbecco’s modified Eagle’s (DMEM) medium (Cat No. 10-013-CV, Corning Life Sciences), supplemented with 5% heat-inactivated fetal bovine serum (FBS), streptomycin (100 μg/mL), and penicillin (100 units/mL). Stocks of all the minor cannabinoids were made in ethanol and stored at −80 °C and diluted as required before cell treatment. A final concentration of ethanol was maintained at 0.1% in the cell culture experiments.
First, cell viability of BV2 cells was assessed after treatment with cannabinoids, at various concentrations (0.1, 1.0, 2.5, 5.0 μM), utilizing Cayman’s MTT assay. […] Once viability was determined, we measured the production of pro-inflammatory markers such as nitric oxide (NO), interleukin 6 (IL-6), tumor necrosis factor alpha (TNFα), and arginase 1 (Arg1) after BV2 cells were treated with minor cannabinoids and then stimulated with lipopolysaccharide (LPS) to evoke an inflammatory response.
BV-2 cells were plated at a density of 50 000 cells/well in a 24-well plate at 37 °C under controlled conditions. Cells were pretreated with the minor cannabinoids at various concentrations (0.1, 1.0, 2.5, 5.0 μM) for 4 h and then stimulated with LPS for 24 h. The culture medium was removed and saved for the determination of nitric oxide production through Cayman’s Griess assay. IL-6, TNFα, and Arginase 1 production was also determined utilizing collected medium. For the Greiss assay, in a 96-well plate, 100 μL of culture medium was used, and 50 μL of both Greiss reagent-1 and Greiss reagent-2 was added and incubated for 10 min. The absorbance was measured at 540 nm using a plate reader (SpectraMax iD5). The quantification was done using a calibration curve that was generated using the sodium nitrite standard obtained from Cayman Chemicals.

T2 sequence (P08684 whole entry, one chain of several): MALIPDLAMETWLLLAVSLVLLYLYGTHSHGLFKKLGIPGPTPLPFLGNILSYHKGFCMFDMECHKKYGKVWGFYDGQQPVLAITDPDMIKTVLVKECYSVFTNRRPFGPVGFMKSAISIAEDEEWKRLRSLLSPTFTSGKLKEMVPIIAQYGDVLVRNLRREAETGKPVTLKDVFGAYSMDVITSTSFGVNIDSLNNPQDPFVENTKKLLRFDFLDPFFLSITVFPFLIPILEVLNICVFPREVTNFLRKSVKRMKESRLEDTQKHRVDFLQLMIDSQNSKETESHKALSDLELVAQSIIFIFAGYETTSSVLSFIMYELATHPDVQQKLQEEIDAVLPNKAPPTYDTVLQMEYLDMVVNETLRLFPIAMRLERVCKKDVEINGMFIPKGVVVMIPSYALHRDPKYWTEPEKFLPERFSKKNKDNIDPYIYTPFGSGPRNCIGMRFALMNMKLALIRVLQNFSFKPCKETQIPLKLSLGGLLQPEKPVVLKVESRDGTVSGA
T1 sequence (P11712 whole entry, one chain of several): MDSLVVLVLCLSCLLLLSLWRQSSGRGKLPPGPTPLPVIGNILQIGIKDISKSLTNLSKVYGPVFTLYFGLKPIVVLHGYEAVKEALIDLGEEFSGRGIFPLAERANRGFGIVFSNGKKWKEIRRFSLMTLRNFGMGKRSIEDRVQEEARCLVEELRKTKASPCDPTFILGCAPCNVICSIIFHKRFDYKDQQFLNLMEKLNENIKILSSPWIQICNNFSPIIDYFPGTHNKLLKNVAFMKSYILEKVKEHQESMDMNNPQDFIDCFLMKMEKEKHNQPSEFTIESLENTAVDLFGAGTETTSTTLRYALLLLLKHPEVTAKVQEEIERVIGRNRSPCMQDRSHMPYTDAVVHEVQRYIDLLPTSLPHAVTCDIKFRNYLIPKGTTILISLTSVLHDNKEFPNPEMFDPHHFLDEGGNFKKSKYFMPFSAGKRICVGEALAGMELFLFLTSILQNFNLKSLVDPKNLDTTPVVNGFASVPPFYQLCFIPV

Row | Compound | percentage increase of NADPH consumption in the presence of CBC (CYP2C9 with CPR) [%] | ΔAmax (spin state change due to heme perturbation) [1] | Kd ([1]; read-out: Kd(app)) | NADPH rate (CYP+CPR+CBC) (CYP2J2 with CPR; CYP2J2, CBC 50 μM) | percentage increase of NADPH consumption in the presence of CBC (CYP2J2 with CPR; CYP2J2, CBC 50 μM vs substrate-free) [%] | EC50 (TRPV2) [nM] | effect on NO release/production [2]
1 | CCCCCc1cc(O)c2c(c1)OC(C)(CCC=C(C)C)C=C2 (stereo not shown) [CBC, Cannabichromene] | ~90 | 0.03 ± 0.00 and 0.03–0.04 | 1660 nM and ~1600 nM and < 10000 nM | 21.7 nmol/min/nmol and ~20 nmol/min/nmol | ~60 | < 10000 | 
2 | CCCCCc1cc(O)c2c(c1)OC(C)(CC/C=C(\C)CO)C=C2 (stereo not shown) [8′-hydroxy-CBC] |  |  |  |  |  |  | elevated levels
